Source: US20240208992A1, “MACROCYCLES AS CFTR MODULATORS” (Idorsia Pharmaceuticals Ltd, priority 2021, published 2024)

Target: human F508del-CFTR (Homo sapiens, UniProt P13569, DEL508-508)
Experiment: F508del-CFTR cell surface expression (corrector activity), DiscoveRx ß-galactosidase complementation chemiluminescence assay in recombinant U2OS cell line;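 further: U2OS cells co-expressing ProLink-tagged F508del-CFTR and a membrane-anchored enzyme acceptor, where more surface CFTR restores β-galactosidase activity measured by chemiluminescence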
Settings: for EC50: EC50, F508del-CFTR cell surface expression
[1] = U2OS cells, 16h compound incubation, geomean values
[2] = U2OS, in relation to Emax of corrector lumacaftor (=100%), arithmetic mean values
[3] = U2OS cells, 16h compound incubation, geomean of several measurements
[4] = U2OS, in relation to the Emax of the corrector lumacaftor (=100%), U2OS cells, 16h compound incubation, arithmetic mean
[5] = U2OS cell line, 16h compound incubation, geomean values
[6] = U2OS, in relation to the Emax of the corrector lumacaftor (=100%), U2OS cell line, 16h compound incubation, arithmetic mean values

human F508del-CFTR, sequence (P13569 with tags, fused parts or gaps DEL508-508): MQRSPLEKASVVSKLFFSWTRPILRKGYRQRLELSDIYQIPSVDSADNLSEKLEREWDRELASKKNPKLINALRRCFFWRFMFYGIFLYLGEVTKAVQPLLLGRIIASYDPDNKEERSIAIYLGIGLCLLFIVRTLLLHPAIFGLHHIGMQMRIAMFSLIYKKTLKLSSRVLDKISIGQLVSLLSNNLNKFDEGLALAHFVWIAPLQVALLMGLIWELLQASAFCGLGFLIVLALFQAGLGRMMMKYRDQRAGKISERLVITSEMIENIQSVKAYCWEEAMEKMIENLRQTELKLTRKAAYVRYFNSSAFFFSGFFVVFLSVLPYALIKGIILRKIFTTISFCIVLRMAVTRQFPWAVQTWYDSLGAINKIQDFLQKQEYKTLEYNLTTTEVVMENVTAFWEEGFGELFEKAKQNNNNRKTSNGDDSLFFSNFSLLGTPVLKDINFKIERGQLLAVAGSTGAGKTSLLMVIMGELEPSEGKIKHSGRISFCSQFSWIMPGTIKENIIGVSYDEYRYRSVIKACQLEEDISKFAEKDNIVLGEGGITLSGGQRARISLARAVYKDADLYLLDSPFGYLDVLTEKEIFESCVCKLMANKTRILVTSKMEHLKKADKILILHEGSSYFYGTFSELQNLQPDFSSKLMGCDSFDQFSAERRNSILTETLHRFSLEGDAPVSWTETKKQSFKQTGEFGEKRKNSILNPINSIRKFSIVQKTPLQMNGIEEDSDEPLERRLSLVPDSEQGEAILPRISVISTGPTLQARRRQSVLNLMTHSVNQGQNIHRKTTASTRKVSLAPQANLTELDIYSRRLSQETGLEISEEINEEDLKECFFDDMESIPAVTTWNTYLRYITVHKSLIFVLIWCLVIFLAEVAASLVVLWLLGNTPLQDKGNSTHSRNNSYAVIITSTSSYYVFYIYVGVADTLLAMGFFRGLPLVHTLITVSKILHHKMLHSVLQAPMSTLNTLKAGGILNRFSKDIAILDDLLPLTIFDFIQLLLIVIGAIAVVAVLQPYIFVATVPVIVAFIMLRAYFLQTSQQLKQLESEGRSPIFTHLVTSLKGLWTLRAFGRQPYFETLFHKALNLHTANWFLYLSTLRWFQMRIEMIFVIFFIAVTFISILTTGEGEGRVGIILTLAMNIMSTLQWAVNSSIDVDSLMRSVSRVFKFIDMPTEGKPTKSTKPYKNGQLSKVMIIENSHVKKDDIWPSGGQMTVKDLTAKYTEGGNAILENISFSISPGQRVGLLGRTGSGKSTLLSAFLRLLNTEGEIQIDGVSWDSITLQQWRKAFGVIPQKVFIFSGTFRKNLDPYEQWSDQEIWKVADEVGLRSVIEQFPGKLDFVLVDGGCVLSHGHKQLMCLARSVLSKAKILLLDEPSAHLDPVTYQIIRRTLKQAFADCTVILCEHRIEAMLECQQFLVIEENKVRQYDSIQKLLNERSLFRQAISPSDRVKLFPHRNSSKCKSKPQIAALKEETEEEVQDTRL

| EC50 [1] [nM] | Emax [2] [%] | Compound | EC50 [5] [nM] | Emax [6] [%] | other results |
| --- | --- | --- | --- | --- | --- |
| 116 | 279 | COc1cc(CCNC(=O)[C@@H]2CC(=O)N(C)[C@@H](CC(C)C)C(=O)N(CCC3CCCCC3)CC(=O)N[C@H](Cc3ccccc3)COc3ccnc(OC)c3C(=O)N2)on1 [Example 582, (3R,9S,13S)-3-benzyl-7-(2-cyclohexylethyl)-9-isobutyl-16-methoxy-N-(2-(3-methoxyisoxazol-5-yl)ethyl)-10-methyl-5,8,11,15-tetraoxo-2,3,4,5,6,7,8,9,10,11,12,13,14,15-tetradecahydropyrido[3,4-p][1]oxa[4,7,10,14]tetraazacycloheptadecine-13-carboxamide] | – | – | – |
| – | – | COc1noc(CCNC(=O)[C@@H]2CC(=O)N(C)[C@@H](CC(C)C)C(=O)N(C)C3(CC3)C(=O)N[C@H](Cc3ccccc3)COc3cnc4ccccc4c3C(=O)N2)n1 [Example 872, (3′S,7′S,13′R)-13′-benzyl-7′-isobutyl-N-(2-(3-methoxy-1,2,4-oxadiazol-5-yl)ethyl)-6′,9′-dimethyl-1′,5′,8′,11′-tetraoxo-2′,3′,4′,5′,6′,7′,8′,9′,11′,12′,13′,14′-dodecahydro-1′H-spiro[cyclopropane-1,10′-[1]oxa[4,7,10,14]tetraazacycloheptadecino[17,16-c]quinoline]-3′-carboxamide] | – | – | EC50 [3]: 535 nM; Emax [4]: 318% |
| – | – | COc1noc(CCNC(=O)[C@@H]2CC(=O)N(C)[C@@H](CC(C)C)C(=O)N(C)[C@H](CC(F)(F)F)C(=O)N[C@H](Cc3ccccc3)COc3ccc4cnc(C)cc4c3C(=O)N2)n1 [Example 938, (3S,7S,10R,13R)-13-benzyl-7-isobutyl-N-(2-(3-methoxy-1,2,4-oxadiazol-5-yl)ethyl)-6,9,20-trimethyl-1,5,8,11-tetraoxo-10-(2,2,2-trifluoroethyl)-1,2,3,4,5,6,7,8,9,10,11,12,13,14-tetradecahydro-[1]oxa[4,7,10,14]tetraazacycloheptadecino[16,17-f]isoquinoline-3-carboxamide] | – | – | EC50 [3]: 245 nM; Emax [4]: 498% |
| 296 | 207 | Cc1cc(CCNC(=O)[C@@H]2CC(=O)N(C)[C@@H](CC(C)C)C(=O)N(C)C3(Cc4ccccc4C3)C(=O)N[C@H](Cc3ccccc3)COc3cnc4ccccc4c3C(=O)N2)on1 [Example 495, (3′S,7′S,13′R)-13′-benzyl-7′-isobutyl-6′,9′-dimethyl-N-(2-(3-methylisoxazol-5-yl)ethyl)-1′,5′,8′,11′-tetraoxo-1,2′,3,3′,4′,5′,6′,7′,8′,9′,11′,12′,13′,14′-tetradecahydro-1′H-spiro[indene-2,10′-[1]oxa[4,7,10,14]tetraazacycloheptadecino[17,16-c]quinoline]-3′-carboxamide] | – | – | – |
| – | – | Cc1ccc(CCNC(=O)[C@@H]2CC(=O)N(C)[C@@H](CC(C)C)C(=O)N3CCOC[C@@H]3C(=O)N[C@H](Cc3ccccc3)COc3cnc4ccccc4c3C(=O)N2)cc1 [Example 60, (9S,13S,19aR,22R)-22-benzyl-13-isobutyl-12-methyl-N-(4-methylphenethyl)-7,11,14,20-tetraoxo-7,8,9,10,11,12,13,14,16,17,19,19a,20,21,22,23-hexadecahydro-[1,4]oxazino[3′,4′:6,7][1]oxa[4,7,10,14]tetraazacycloheptadecino[17,16-c]quinoline-9-carboxamide] | 662 | 228 | – |
| 624 | 314 | COc1nccc2c1C(=O)N[C@H](C(=O)NCCc1nc(C3CC3)no1)CC(=O)N(C)[C@@H](CC(C)C)C(=O)N1CCCC[C@@H]1C(=O)N[C@H](Cc1ccccc1)CO2 [Example 511, (7S,11S,17aR,20R)-20-benzyl-N-(2-(3-cyclopropyl-1,2,4-oxadiazol-5-yl)ethyl)-11-isobutyl-4-methoxy-10-methyl-5,9,12,18-tetraoxo-5,6,7,8,9,10,11,12,15,16,17,17a,18,19,20,21-hexadecahydro-14H-dipyrido[2,1-f:3′,4′-p][1]oxa[4,7,10,14]tetraazacycloheptadecine-7-carboxamide] | – | – | – |
| – | – | [2H]C([2H])([2H])Oc1cccc(CCNC(=O)[C@@H]2CC(=O)N(C)[C@@H](CC(C)C)C(=O)N(CCC3CCCCC3)CC(=O)N[C@H](Cc3ccccc3)COc3cccc(OC([2H])([2H])[2H])c3C(=O)N2)c1 [Example 244, (3R,9S,13S)-3-benzyl-7-(2-cyclohexylethyl)-9-isobutyl-16-(methoxy-d3)-N-(3-(methoxy-d3)phenethyl)-10-methyl-5,8,11,15-tetraoxo-2,3,4,5,6,7,8,9,10,11,12,13,14,15-tetradecahydrobenzo[p][1]oxa[4,7,10,14]tetraazacycloheptadecine-13-carboxamide] | 177 | 239 | – |
| 778 | 301 | Cc1cc(CCNC(=O)[C@@H]2CC(=O)N(C)[C@@H](CC(C)C)C(=O)N(C)C3(CC(F)(F)C3)C(=O)N[C@H](Cc3ccccc3)COc3cnc4ccccc4c3C(=O)N2)on1 [Example 711, (3′S,7′S,13′R)-13′-benzyl-3,3-difluoro-7′-isobutyl-6′,9′-dimethyl-N-(2-(3-methylisoxazol-5-yl)ethyl)-1′,5′,8′,11′-tetraoxo-2′,3′,4′,5′,6′,7′,8′,9′,11′,12′,13′,14′-dodecahydro-1′H-spiro[cyclobutane-1,10′-[1]oxa[4,7,10,14]tetraazacycloheptadecino[17,16-c]quinoline]-3′-carboxamide] | – | – | – |
| – | – | Cc1cc(CCNC(=O)[C@@H]2CC(=O)N(C)[C@@H](CC(C)C)C(=O)N(CCC3CCCCC3)CC(=O)N[C@H](Cc3ccccc3)COc3cnc4ccccc4c3C(=O)N2)on1 [Example 344, (3S,7S,13R)-13-benzyl-9-(2-cyclohexylethyl)-7-isobutyl-6-methyl-N-(2-(3-methylisoxazol-5-yl)ethyl)-1,5,8,11-tetraoxo-1,2,3,4,5,6,7,8,9,10,11,12,13,14-tetradecahydro-[1]oxa[4,7,10,14]tetraazacycloheptadecino[17,16-c]quinoline-3-carboxamide] | 126 | 284 | – |
| – | – | CC(C)C[C@H]1C(=O)N2CCCC[C@@H]2C(=O)N[C@H](Cc2ccccc2)COc2cnc3ccccc3c2C(=O)N[C@H](C(=O)NCCc2noc(C(C)(C)C)n2)CC(=O)N1C [Example 85, (9S,13S,19aR,22R)-22-benzyl-N-(2-(5-(tert-butyl)-1,2,4-oxadiazol-3-yl)ethyl)-13-isobutyl-12-methyl-7,11,14,20-tetraoxo-7,8,9,10,11,12,13,14,17,18,19,19a,20,21,22,23-hexadecahydro-16H-pyrido[2′,1′:6,7][1]oxa[4,7,10,14]tetraazacycloheptadecino[17,16-c]quinoline-9-carboxamide] | 260 | 244 | – |
| – | – | COc1ccc(CCNC(=O)[C@@H]2CC(=O)N(C)[C@@H](CC(C)C)C(=O)N3CCCC[C@@H]3C(=O)N[C@H](Cc3ccccc3)COc3ccc4ncn(C)c4c3C(=O)N2)cc1 (racemic) [Example 25, (8RS,12S,18aR,21R)-21-benzyl-12-isobutyl-N-(4-methoxyphenethyl)-5,11-dimethyl-6,10,13,19-tetraoxo-6,7,8,9,10,11,12,13,16,17,18,18a,19,20,21,22-hexadecahydro-5H,15H-imidazo[4′,5′:5,6]benzo[1,2-p]pyrido[2,1-f][1]oxa[4,7,10,14]tetraazacycloheptadecine-8-carboxamide] | 547 | 142 | – |
| – | – | CC(C)C[C@H]1C(=O)N2CCOC[C@@H]2C(=O)N[C@H](Cc2ccccc2)COc2ccc3ccccc3c2C(=O)N[C@H](C(=O)NCCc2ccc3c(c2)OCO3)CC(=O)N1C [Example 326, (4aR,7R,18S,22S)-N-(2-(benzo[d][1,3]dioxol-5-yl)ethyl)-7-benzyl-22-isobutyl-21-methyl-5,16,20,23-tetraoxo-1,2,4,4a,5,6,7,8,16,17,18,19,20,21,22,23-hexadecahydronaphtho[1,2-p][1,4]oxazino[3,4-f][1]oxa[4,7,10,14]tetraazacycloheptadecine-18-carboxamide] | 276 | 273 | – |
| – | – | CN1C(=O)C[C@@H](C(=O)NCCc2ccc3c(c2)OCO3)NC(=O)c2c(ccc3ccccc23)OC[C@@H](Cc2ccccc2)NC(=O)CN(C[C@H]2CCCCO2)C(=O)[C@@H]1CC1CCC1 [Example 338, (3S,7S,13R)-N-(2-(benzo[d][1,3]dioxol-5-yl)ethyl)-13-benzyl-7-(cyclobutylmethyl)-6-methyl-1,5,8,11-tetraoxo-9-(((R)-tetrahydro-2H-pyran-2-yl)methyl)-1,2,3,4,5,6,7,8,9,10,11,12,13,14-tetradecahydronaphtho[1,2-p][1]oxa[4,7,10,14]tetraazacycloheptadecine-3-carboxamide] | 292 | 173 | – |
| 124 | – | COc1nccc2c1C(=O)NC(C(=O)NCCc1cc(C3CC3)no1)CC(=O)N(C)C(CC(C)C)C(=O)N(C)C(CC1CCC(F)(F)CC1)C(=O)NC(Cc1ccccc1)CO2 (single isomer, unassigned) [Example 662] | – | – | Emax (in relation to Emax of corrector lumacaftor (=100%), arithmetic mean values): 297% |
| – | – | Cc1cc2c3c(ccc2cn1)OC[C@@H](Cc1ccccc1)NC(=O)[C@@H](Cc1nc(-c2ccc(F)cn2)no1)N(C)C(=O)[C@H](CC(C)C)N(C)C(=O)C[C@@H](C(=O)NCCc1noc(C2CC2)n1)NC3=O [Example 905] | – | – | EC50 [3]: 311 nM; Emax [4]: 415% |

| Compound | EC50 [1] [nM] | Emax [2] [%] | EC50 [5] [nM] | Emax [6] [%] | other results |
| --- | --- | --- | --- | --- | --- |
| CC(C)C[C@H]1C(=O)N2CCCC[C@@H]2C(=O)N[C@H](Cc2ccccc2)COc2ccc3ncccc3c2C(=O)N[C@H](C(=O)NCCc2noc(C3CC3)n2)CC(=O)N1C [Example 486, (9S,13S,19aR,22R)-22-benzyl-N-(2-(5-cyclopropyl-1,2,4-oxadiazol-3-yl)ethyl)-13-isobutyl-12-methyl-7,11,14,20-tetraoxo-7,8,9,10,11,12,13,14,17,18,19,19a,20,21,22,23-hexadecahydro-16H-pyrido[2′,11:6,7][1]oxa[4,7,10,14]tetraazacycloheptadecino[16,17-f]quinoline-9-carboxamide] | 201 | 303 | – | – | – |
